Measured values as given in patent US20240116985A1, “STAPLED PEPTIDES AND METHODS THEREOF” (priority 2020, published 2024).
Values after ≈ are worked out from the molar mass of the structure shown. Where two headings read alike, the source gives them in different places.

Tests used:
[1] = biological target: T1, full-length beta-Catenin (Uniprot ID P35222) (Homo sapiens, UniProt P35222); test: Fluorescence polarization IC50 (beta-catenin / 5FAM-TCF4 10-53 competition); format: binding
T1 construct: 10 nM full-length beta-Catenin (Uniprot ID P35222)
T1 sequence (P35222 1-781): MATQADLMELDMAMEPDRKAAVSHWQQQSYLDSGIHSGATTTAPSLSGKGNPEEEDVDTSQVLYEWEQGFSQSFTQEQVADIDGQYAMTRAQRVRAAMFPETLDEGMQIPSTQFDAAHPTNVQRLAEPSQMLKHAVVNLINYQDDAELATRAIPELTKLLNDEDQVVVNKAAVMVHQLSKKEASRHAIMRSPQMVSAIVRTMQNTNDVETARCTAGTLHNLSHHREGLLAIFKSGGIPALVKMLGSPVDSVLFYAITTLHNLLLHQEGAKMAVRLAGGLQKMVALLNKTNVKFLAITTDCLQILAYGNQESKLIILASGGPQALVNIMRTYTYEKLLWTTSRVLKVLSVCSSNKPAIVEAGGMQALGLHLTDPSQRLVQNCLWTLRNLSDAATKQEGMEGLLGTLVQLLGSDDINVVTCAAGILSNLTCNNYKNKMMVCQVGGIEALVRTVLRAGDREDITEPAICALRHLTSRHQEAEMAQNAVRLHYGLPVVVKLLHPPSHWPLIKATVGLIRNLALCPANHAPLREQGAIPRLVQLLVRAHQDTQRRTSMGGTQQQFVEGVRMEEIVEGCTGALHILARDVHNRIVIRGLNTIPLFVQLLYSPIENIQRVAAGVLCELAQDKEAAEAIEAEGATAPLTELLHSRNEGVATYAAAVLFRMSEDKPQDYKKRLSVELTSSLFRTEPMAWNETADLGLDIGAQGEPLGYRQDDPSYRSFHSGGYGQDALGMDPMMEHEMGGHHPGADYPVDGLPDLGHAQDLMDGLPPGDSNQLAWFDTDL

[2] = CHI Log D procedure; format: physicochemical; conditions: pH 7.4
[3] = Solubility in PBS; format: physicochemical
Method in brief: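 Steps: ultracentrifuge the peptide PBS solution, inject the supernatant on HPLC, inject a 50 μM peptide DMSO solution as reference, then calculate solubility as area ratio (PBS/DMSO) × 50 uM.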

[4] = fluorescence polarization, beta-catenin, read-out: FP EC50

| Compound | IC50 [1, 4] [µM] | IC50 ([1]; read-out: beta-Catenin FP IC50) [µM] | CHI Log D [2] | Solubility [3] [µM] |
| --- | --- | --- | --- | --- |
| CCN(CC(=O)O)C[C@@H]1NC(=O)[C@H](CC(=O)O)NC(=O)C2(CCCC=CCCCOC(=O)N3CC[C@@](C(=O)N[C@@H](Cc4ccsc4)C(=O)N[C@@H](Cc4csc5ccccc45)C(=O)N[C@@H](CCC(N)=O)C(N)=O)(C3)NC(=O)[C@H]([C@@H](C)O)NC(=O)[C@H](Cc3ccccc3)NC(=O)[C@H](C)NC(=O)[C@H](C)NC1=O)CCCC=CC[C@]1(CCCN1C(C)=O)C(=O)N[C@@H](CC(=O)O)C(=O)N[C@@H](CC(C)(C)C)C(=O)N2 (stereo partly drawn) [I-968, Ac-PL3-Asp-Npg-B5-Asp-EtGA-Ala-Ala-Phe-Thr-PyrS2-3Thi-BztA-Gln-NH2] | 2.98 | 2.98 | 1.752 | 30 (≈ 58.9 µg/mL) |
| CCN(CC(=O)O)C[C@@H]1NC(=O)[C@H](CC(=O)O)NC(=O)C2(CCCC=CCCCOC(=O)N3CC[C@@](C(=O)N[C@@H](Cc4ccsc4)C(=O)N[C@@H](Cc4csc5ccccc45)C(=O)N[C@@H](CCC(N)=O)C(N)=O)(C3)NC(=O)[C@H]([C@@H](C)O)NC(=O)[C@H](Cc3ccccc3)NC(=O)[C@H](C)NC(=O)[C@H](C)NC1=O)CCCC=CC[C@]1(CCCN1C(C)=O)C(=O)N[C@@H](CC(=O)O)C(=O)N[C@@H](CC(C)(C)C)C(=O)N2 (stereo partly drawn) [I-969, Ac-PL3-Asp-Npg-B5-Asp-EtGA-Ala-Ala-Phe-Thr-PyrS2-3Thi-BztA-Gln-NH2] | 2.32 | 2.32 | 1.851 | 46 (≈ 90.3 µg/mL) |
| CCN(CC(=O)O)C[C@@H]1NC(=O)[C@H](CC(=O)O)NC(=O)C2(CCCC=CCCCOC(=O)N3CC[C@@](C(=O)N[C@@H](Cc4ccsc4)C(=O)N[C@@H](Cc4csc5ccccc45)C(=O)N[C@@H](CCC(N)=O)C(N)=O)(C3)NC(=O)[C@H](Cc3ccccc3)NC(=O)[C@H](Cc3ccccc3)NC(=O)[C@H](C)NC(=O)[C@H](C)NC1=O)CCCC=CC[C@]1(CCCN1C(C)=O)C(=O)N[C@@H](CC(=O)O)C(=O)N[C@@H](CC(C)(C)C)C(=O)N2 (stereo partly drawn) [I-971, Ac-PL3-Asp-Npg-B5-Asp-EtGA-Ala-Ala-Phe-Phe-PyrS2-3Thi-BztA-Gln-NH2] | 1.61 | 1.84 | 1.939 | 10 (≈ 20.1 µg/mL) |
| CCN(CC(=O)O)C[C@@H]1NC(=O)[C@H](CC(=O)O)NC(=O)C2(CCCC=CCCCOC(=O)N3CC[C@@](C(=O)N[C@@H](Cc4ccsc4)C(=O)N[C@@H](Cc4csc5ccccc45)C(=O)N[C@@H](CCC(N)=O)C(N)=O)(C3)NC(=O)[C@H](CC(C)C)NC(=O)[C@H](Cc3ccccc3)NC(=O)[C@H](C)NC(=O)[C@H](C)NC1=O)CCCC=CC[C@]1(CCCN1C(C)=O)C(=O)N[C@@H](CC(=O)O)C(=O)N[C@@H](CC(C)(C)C)C(=O)N2 (stereo partly drawn) [I-972, Ac-PL3-Asp-Npg-B5-Asp-EtGA-Ala-Ala-Phe-Leu-PyrS2-3Thi-BztA-Gln-NH2] | 1.82 | 1.82 | 1.879 | 30 (≈ 59.2 µg/mL) |
| CCN(CC(=O)O)C[C@@H]1NC(=O)[C@H](CC(=O)O)NC(=O)C2(CCCC=CCCCOC(=O)N3CC[C@@](C(=O)N[C@@H](Cc4ccsc4)C(=O)N[C@@H](Cc4csc5ccccc45)C(=O)N[C@@H](CO)C(N)=O)(C3)NC(=O)[C@H](CO)NC(=O)[C@H](Cc3ccccc3)NC(=O)[C@H](C)NC(=O)[C@H](C)NC1=O)CCCC=CC[C@]1(CCCN1C(C)=O)C(=O)N[C@@H](CC(=O)O)C(=O)N[C@@H](CC(C)(C)C)C(=O)N2 (stereo partly drawn) [I-974, Ac-PL3-Asp-Npg-B5-Asp-EtGA-Ala-Ala-Phe-Ser-PyrS2-3Thi-BztA-Ser-NH2] | 1.78 | 1.78 | 1.857 | 10 (≈ 19.1 µg/mL) |
| CCN(CC(=O)O)C[C@@H]1NC(=O)[C@H](CC(=O)O)NC(=O)C2(CCCC=CCCCOC(=O)N3CC[C@@](C(=O)N[C@@H](Cc4ccsc4)C(=O)N[C@@H](Cc4csc5ccccc45)C(=O)N[C@@H](CO)C(N)=O)(C3)NC(=O)[C@H](CO)NC(=O)[C@H](Cc3ccccc3)NC(=O)[C@H](C)NC(=O)[C@H](C)NC1=O)CCCC=CC[C@]1(CCCN1C(C)=O)C(=O)N[C@@H](CC(=O)O)C(=O)N[C@@H](CC(C)(C)C)C(=O)N2 (stereo partly drawn) [I-975, Ac-PL3-Asp-Npg-B5-Asp-EtGA-Ala-Ala-Phe-Ser-PyrS2-3Thi-BztA-Ser-NH2] | 1.71 | 2.24 | 1.952 | 46 (≈ 87.7 µg/mL) |
